In patent publication US7491501B2, “Methods for identifying modulators of intracellular aggregate formation” (Auburn University, priority 2003, dated 2009):
Where a SMILES comes first, the peptide text is derived from it. [ ]: non-standard residue; d: D form. The star is where a group is joined. Nle = CCCC[C@H](N)C(=O)O; Cbz = O=C(OCc1ccccc1)*

Tests used:
[1] = system: HEK cells; test: Cell survival by MTS reagent in p62-transfected HEK cells (FIG. 1D); type: cell-based, Human; settings: ALLN (50 μM) 30 h
Description: In FIG. 1D HEK cells (in a 24-well plate) were transfected with myc-tagged wild-type p62, p62ΔUBA, or p62ΔN-term along with HA-tagged ubiquitin constructs. After 24 h of transfection, the cells were treated with or without ALLN (50 μM) for 30 h. Cell survival was assessed by the addition of MTS reagent for 2 h. Values plotted in FIG. 1D are means±standard error of the means of four different experiments.

[2] = system: p62 aggregates in HEK cells; test: p62 aggregate formation by confocal/fluorescence microscopy in transfected HEK cells; type: cell-based, Human; settings: for large p62 aggregates upon inhibition of proteasomal degradation: MG132 data not shown; for size of aggregates of cotransfected p62, ubiquitin, TRAF6, tau, UbcH7: cotransfected cells (FIG. 9C), MG132 not shown; for formation of the p62 aggregates (microtubule dependence): data not shown
Description: Immunofluorescence staining—All steps were done at room temperature unless stated otherwise. The inclusion bodies were placed on poly-L-lysine coated 12 well slides (Cel-line/Erie Scientific Co., Portmouth, N.H.) and let partially dry. Inclusion bodies on the slides were fixed for 10 min in 3% paraformaldehyde (Electron Microscopy Sciences, Fort Washington, Pa.) and permeabilized with 0.1% Triton X-100 in PBS for 15 minutes. The inclusion bodies were incubated in blocking buffer (3% non fat dry milk in PBS) for 1 h, prior to incubation with primary antibodies at 4° C. overnight. After washing with PBS, the secondary antibody (Molecular Probes Inc., Eugene, Oreg.) in blocking buffer was applied for 1 h. After extensive washing in PBS, the samples were mounted using Vectashield (Vector Laboratories Inc., Burlingame, Calif.). The cells were fixed with 3% paraformaldehyde and processed similar to that of inclusion staining.
Cells were incubated with rabbit anti-myc IgG or mouse anti-HA IgG and labeled with Texas Red-conjugated anti-rabbit antibodies (red) or Oregon Green-conjugated anti-mouse antibodies (green), respectively. Merged images with overlapping immunoreactivity are shown in yellow. Note that cells expressing p62 lacking its UBA domain (p62ΔUBA) fail to form aggregates or to colocalize with ubiquitin. All experiments were replicated three independent times with similar results. Small aggregates of p62 colocalized with ubiquitin which was dependant upon the presence of a UBA domain but not the N-terminal portion of p62. Aggregation may impair the proteasome or, alternatively, impaired proteasome activity may seed aggregates. Alternatively, impairment of the proteasome may enhance the formation of p62 aggregates containing polyubiquitin.
In summary, through its UBA domain, p62 Interacts with polyubiquitinated substrates, and the UBA domain is necessary for aggregate formation.
Since TRAF6 localized to the large aggregates along with polyubiquitin (FIG. 2B), these aggregates may represent the failed attempt of the cell to rid itself of TRAF6-K63-polyubiquitinated substrates sequestered through interaction with the UBA domain. […] Altogether, these findings reveal that p62 binds proteins with K63 chains through its UBA domain and that p62 aggregates sequester TRAF6 as well as K63-polyubiquitinated substrates.
To further determine if the coassociation of tau-p62-TRAF6 and UbcH7 could be recapitulated in vitro, a cotransfection approach was undertaken. […] HEK cells were transfected with GFP-p62 followed by treatment or not with Aβ1-42 and Aβ42-1 peptides. […] This is consistent with the observation that microtubule dependent transport is important for the formation of p62 inclusions as assessed by treatment of the cells with nocodazole, a microtubule disrupting agent (9).

[3] = system: GFP-p62-expressing cells; test: Live/Dead Viability/Cytotoxicity assay of cells with or without p62 aggregates; type: cell-based; settings: With ALLN; cells scored by GFP-p62 expression
Description: Cell Death Assay—Live and dead cells were identified with LIVE/DEAD Viability/Cytotoxicity Kit (Molecular Probes, Eugene, Oreg.) according to the manufacturer's instruction.
The role of aggregates and their relationship to cell survival are controversial. […] Viability of cells with p62 aggregates employing the Live/Dead Viability/Cytotoxicity assay was determined (Table 1).

[4] = system: ubiquitinated tau; test: Accumulation of ubiquitinated tau in tau-transfected HEK cells treated with degradation inhibitors; type: cell-based, Human; settings: 50 μM ALLN, 5 μM MG132 or 0.15 mM chloroquine, 24 h
Source text: Depletion of p62 levels by transfection of antisense (AS) p62 retarded the turnover of p62 (FIG. 12A). […] Collectively these findings reveal that tau turnover is regulated by both the expression of p62 and the presence of K63 polyubiquitin chains carried by tau. The best known function of protein ubiquitination is to target proteins for degradation by the 26S proteasome. However, K63 chains have been hypothesized to play a role aside of targeting proteins to the proteasome. To test whether K63 chains are able to signal proteasomal degradation, tau was first ubiquitinylated in an in vitro reaction with K63 ubiquitin. The protein complex containing polyubiquitinated tau on beads was then incubated with 26S proteasome supplemented with MgCl2 and ATP. The polyubiquitinated chains disappeared after incubation with purified 26S proteasome (FIG. 12B). To determine whether the observed disappearance of polyubiquitinated products is due to degradation or to the deubiquitinating activity in the 26S proteasome fraction, a deubiquitination inhibitor, Ub-H was added to the reaction. […] To test if ubiquitinated tau was targeted to the proteasome, HEK cells cotransfected with His-tau were treated with ALLN, MG132 or chloroquine. Both ALLN and MG132 block proteasome degradation, whereas chloroquine blocks degradation through the lysosome. It was observed that ubiquitinated tau accumulates in the presence of proteasome inhibitors, but not chloroquine, thus confirming that polyubiquitinated tau is degraded by the proteasome (FIG. 12C).

[5] = system: PC12 cells; test: Cell survival assay (MTS) in NGF-treated PC12 cells (Table 4); type: cell-based; settings: PC12, NGF 50 ng/ml, MG132 25 μM, Aβ peptides 10 μM, 24 h, 100% without agent
Description: Cell Survival Assay—PC 2 cells were treated with 50 ng/ml NGF 24 h prior to addition of TRAF6 control or inhibitor peptide (75 μM). After 5 h, the cells were treated for an additional 24 h with or without MG132 (25 μM), Aβ peptide 42-1 or 1-42 (10 μM). Cell survival was measured by MTS assay.
All cells were treated with NGF (50 ng/ml), followed by addition of control or inhibitory TRAF6 peptide +/−Aβ peptide. Survival was measured by MTS assay.

[6] = system: tau aggregates in PC12 cells; test: Tau aggregate formation in NGF-treated PC12 cells (Table 3); type: cell-based; settings: PC12, NGF 50 ng/ml; MG132 25 μM, Aβ peptides 10 μM; 6% without agent
Description: PC12 cells were treated with NGF to induce tau polyubiquitination and treated or not with MG132 or Aβ and Aβ1-42, Aβ42-1. […] The relationship between aggregate formation and cell death was assessed (Tables, 3 & 4). Tau aggregate formation was observed upon treatment with MG1 32 or Aβ1-42 peptide. […] Furthermore, aggregate formation correlated with enhanced […] (Table 4).
All cells were treated with NGF (50 ng/ml), followed by addition of control or inhibitory TRAF6 peptide +/−Aβ peptide. Cells were stained for tau and 300 cells from two independent experiments were scored for the presence of tau aggregates or not.

[7] = system: TrkA; test: NGF-dependent TrkA ubiquitination and TrkA complex formation in PC12 cells (FIG. 15B, 15C); type: cell-based; settings: NGF treated, TrkA immunoprecipitation
Description: (§1) The peptide containing the TRAF6-binding motif in p62 along with the hydrophobic sequence containing the cell-permeable motif from Kaposi fibroblast growth factor signal sequence […]-[…] (SEQ ID NO. 4) and control peptide […]-[…] (SEQ ID NO. 5) was synthesized. As a preliminary step, PC12 cells were pretreated with different concentrations (75-300 μM) of TRAF6 peptide for 5 hours followed by NGF stimulation for 15 min and immunoprecipitation of TRAF6 followed by Western blotting for p62. […] To address whether TRAF6 peptide affects the interaction of p62 and UbcH7 with TRAF6, PC12 cells were treated with or without 150 μM of control peptide or TRAF6 peptide for 5 hours and then stimulated with NGF for 15 min. By immunoprecipitating TRAF6, TRAF6 peptide (150 μM) abrogated the interaction of p62 with TRAF6, but not UbcH7, upon NGF treatment (FIG. 8A). […] The ability of the TRAF6 peptide to impair the ubiquitination process was investigated. Lysates recovered from NGF treated cells were immunoprecipitated with TrkA receptor antibody and blotted for ubiquitin or the receptor (FIG. 15B). […] The ability of the peptide to interrupt the formation of the functional TrkA-p62-TRAF6-UbcH7 complex on NGF stimulation as well was also investigated. TrkA was immunoprecipitated and blotted for the presence of each protein in the complex (FIG. 15C).

[8] = system: internalization of NGF by PC12 cells; test: Internalization of NGF, 125I-NGF binding assay in PC12 cells (FIG. 15D); type: cell-based; settings: PC12 cells pretreated with peptide (150 μM); control not shown
Description: Additionally, PC12 cells were pretreated or not with TRAF6 peptide (150 μM) followed by measurement of internalized receptor employing 125I-NGF binding assay (FIG. 15D). […] Similarly, the level of internalized NGF was measured in PC12 cells transfected with wild-type ubiquitin, K48R or K63R ubiquitin mutants (FIG. 15E). Transfection of ubiquitin, or K48R mutant was without any effect on internalization of NGF. By comparison, transfection of K63R ubiquitin mutant totally abrogated internalization of the ligand. […] Thus, p62 serves as an adaptor, as well as, a scaffold for TRAF6-directed ubiquitination and K63 chains play a signaling role for internalization and sorting of the receptor.

[9] = molecular target: T1, interaction of p62 with TRAF6 (Rattus norvegicus, UniProt B5DF45); test: TRAF6 immunoprecipitation and Western blot for p62/UbcH7 in NGF-stimulated PC12 cells; type: cell-based; settings: 150 μM peptide 5 hours, NGF 15 min
T1 construct: followed by NGF stimulation for 15 min and immunoprecipitation of TRAF6 followed by Western blotting for p62; endogenous in cells; host or cells: PC12
Description: Immunoprecipitation and Western blotting—Each mg of lysate/inclusion bodies was incubated with 41 ng of primary antibody at 4° C. for 3 h and then with 50 μl of 50% agarose-coupled secondary antibody for 2 more hours at 4 C. The beads were washed three times with lysis buffer, eluted by adding SDS-PAGE sample buffer, and subjected to SDS-PAGE in 7.5-12% acrylamide gels. Immunoblotting was performed on nitrocellulose membranes and analyzed by western blotting with ECL detection reagents (Amersham Biosciences).
(§2) The region spanning amino acids 225-251 is necessary for the interaction of p62 with TRAF6. The peptide containing TRAF6 binding motif in p62 along with the hydrophobic sequence containing the cell-permeable motif from Kaposi fibroblast growth factor sequence, […]-[…] (SEQ ID NO. 4) and control peptide […]-[…] (SEQ ID NO. 5) was synthesized. As a preliminary step, PC12 cells were pretreated with various concentrations of peptide for 5 h, followed by NGF stimulation for 15 min and immunoprecipitation with TRAF6 and western blotted with p62. […] The peptide was then tested for its ability to block NGF-induced tau polyubiquitination (FIG. 13A).
as §1

[10] = system: tau polyubiquitination; test: NGF-induced tau polyubiquitination in PC12 cells (FIG. 13A); type: cell-based; settings: control not shown
Description: as §2

T1 sequence (B5DF45 whole entry): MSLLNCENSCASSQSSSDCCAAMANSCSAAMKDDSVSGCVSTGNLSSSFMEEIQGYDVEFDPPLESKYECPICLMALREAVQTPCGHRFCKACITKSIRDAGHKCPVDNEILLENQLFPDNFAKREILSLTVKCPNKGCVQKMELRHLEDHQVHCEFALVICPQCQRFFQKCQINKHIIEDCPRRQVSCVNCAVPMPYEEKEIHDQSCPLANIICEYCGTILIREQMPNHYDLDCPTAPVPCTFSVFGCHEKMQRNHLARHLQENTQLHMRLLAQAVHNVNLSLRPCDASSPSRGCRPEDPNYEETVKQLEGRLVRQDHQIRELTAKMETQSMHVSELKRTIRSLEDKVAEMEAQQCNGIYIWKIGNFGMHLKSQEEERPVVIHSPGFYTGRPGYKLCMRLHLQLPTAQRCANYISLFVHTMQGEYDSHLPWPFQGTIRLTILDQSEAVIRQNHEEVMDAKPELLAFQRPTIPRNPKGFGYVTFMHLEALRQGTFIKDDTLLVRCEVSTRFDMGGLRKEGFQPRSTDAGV
T1 sequence (D3Z8W5 1-154 partner): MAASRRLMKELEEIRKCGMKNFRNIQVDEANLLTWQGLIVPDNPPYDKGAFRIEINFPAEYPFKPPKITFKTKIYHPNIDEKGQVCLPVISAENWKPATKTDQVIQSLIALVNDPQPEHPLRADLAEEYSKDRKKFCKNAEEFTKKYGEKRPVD

CCCC[C@@H](C=O)NC(=O)[C@H](CC(C)C)NC(=O)[C@H](CC(C)C)NC(C)=O [ALLN, N-acetyl-Leu-Leu-Norleu-AL] (Ac-Leu-Leu-[Nle]-aldehyde)
cell survival-promoting effects of p62 [1]: completely inhibited | size of the aggregates ([2]; HEK cells, ALLN (50 μM) 24 h, 6 to 8 microns without ALLN): 12 to 14 microns | GFP-p62-expressing cells accumulating large p62 aggregates ([2]; HEK cells, ALLN treatment): 100% | average number of aggregates per cell ([2]; HEK cells, with versus without ALLN): essentially similar | large p62 aggregates upon inhibition of proteasomal degradation ([2]; HEK cells): large aggregates of p62 which contained sequestered polyubiquitin were visible | size of aggregates of cotransfected p62, ubiquitin, TRAF6, tau, UbcH7 [2]: increased in size | % of cells, With aggregates, Alive [3]: 48% | % of cells, With aggregates, Dead [3]: 52% | % of cells, Without aggregates, Alive [3]: 38% | % of cells, Without aggregates, Dead [3]: 62% | accumulation of ubiquitinated tau [4]: accumulates

COC(=O)Nc1nc2ccc(C(=O)c3cccs3)cc2[nH]1 [nocodazole]
formation of the p62 aggregates (microtubule dependence) [2]: prevented their formation

CCN(CC)CCCC(C)Nc1ccnc2cc(Cl)ccc12 (centres unmarked) [chloroquine]
accumulation of ubiquitinated tau [4]: not

Aβ1-42: neurotoxic amyloid beta peptide
cell survival, agent alone (Control, no TRAF6 peptide) [5]: 45.7% | formation of p62 aggregates by Aβ peptide ([2]; HEK cells transfected with GFP-p62 (FIG. 9D)): induced formation of p62 aggregates | cells with tau aggregates, agent alone (Control, no TRAF6 peptide) [6]: 72%

AAVALLPAVLLALLAP-ESASGASADASVNFLK [control peptide]
NGF-dependent ubiquitination of TrkA [7]: no effect | internalization of NGF [8]: not | interaction of p62 with TRAF6 [9]: without effect | NGF-induced tau polyubiquitination [10]: not

CC[C@]1(O)C[C@@H]2CN(CCc3c([nH]c4ccccc34)[C@@](C(=O)OC)(c3cc4c(cc3OC)N(C)[C@H]3[C@@](O)(C(=O)OC)[C@H](OC(C)=O)[C@]5(CC)C=CCN6CC[C@]43[C@@H]65)C2)C1 [vinblastine]
formation of the p62 aggregates (microtubule dependence) [2]: prevented their formation

CC(C)C[C@@H](C=O)NC(=O)[C@H](CC(C)C)NC(=O)[C@H](CC(C)C)NC(=O)OCc1ccccc1 [MG132, Z-Leu-Leu-Leu-CHO] (Cbz-Leu-Leu-Leu-aldehyde)
cell survival, agent alone (Control, no TRAF6 peptide) [5]: 44.3% | large p62 aggregates upon inhibition of proteasomal degradation ([2]; HEK cells): large aggregates of p62 which contained sequestered polyubiquitin were visible | size of aggregates of cotransfected p62, ubiquitin, TRAF6, tau, UbcH7 [2]: increased in size | accumulation of ubiquitinated tau [4]: accumulates | cells with tau aggregates, agent alone (Control, no TRAF6 peptide) [6]: 82%
